Experimental data published in PubChem BioAssay (NCI).
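Abbreviation: GI50, concentration required for 50% inhibition of growth. Definition used: TGI = concentration required for complete inhibition of growth.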

Experiments:
Assay in all cases: growth of human tumour cells (NCI), 384-well format
SK-OV-3 ovarian = tested on: SK-OV-3 ovarian
OVCAR-4 ovarian = tested on: OVCAR-4 ovarian
BT-549 breast = tested on: BT-549 breast
OVCAR-3 ovarian = tested on: OVCAR-3 ovarian
SF-539 CNS = tested on: SF-539 CNS
COLO 205 colon = tested on: COLO 205 colon
MDA-MB-468 breast = tested on: MDA-MB-468 breast
SN12C renal = tested on: SN12C renal
CCRF-CEM leukemia = tested on: CCRF-CEM leukemia
EKVX NSCLC = tested on: EKVX NSCLC
LOX IMVI melanoma = tested on: LOX IMVI melanoma
MCF7 breast = tested on: MCF7 breast
TK-10 renal = tested on: TK-10 renal
NCI-H522 lung = tested on: NCI-H522 lung
MDA-MB-435 melanoma = tested on: MDA-MB-435 melanoma
OVCAR-8 ovarian = tested on: OVCAR-8 ovarian
SNB-19 CNS = tested on: SNB-19 CNS
RPMI-8226 leukemia = tested on: RPMI-8226 leukemia
MALME-3M melanoma = tested on: MALME-3M melanoma
NCI-H460 NSCLC = tested on: NCI-H460 NSCLC
NCI/ADR-RES ovarian = tested on: NCI/ADR-RES ovarian
SF-295 CNS = tested on: SF-295 CNS
NCI-H23 lung = tested on: NCI-H23 lung
NCI-H322M lung = tested on: NCI-H322M lung
A549 NSCLC = tested on: A549 NSCLC
A498 renal = tested on: A498 renal
DU-145 prostate = tested on: DU-145 prostate
HT29 colon = tested on: HT29 colon

Compound: CNC(=O)c1cc(Oc2ccc(NC(=O)Nc3cc(C(C)(C)C)nn3-c3ccc4ncccc4c3)c(F)c2)ccn1
- GI50 (SK-OV-3 ovarian): 1050 nM
- TGI (SK-OV-3 ovarian): > 100000 nM
- GI50 (OVCAR-4 ovarian): 2180 nM
- TGI (OVCAR-4 ovarian): 4990 nM
- GI50 (BT-549 breast): 632 nM
- TGI (BT-549 breast): 1880 nM
- GI50 (OVCAR-3 ovarian): 2390 nM
- TGI (OVCAR-3 ovarian): 5220 nM
- GI50 (SF-539 CNS): 1400 nM
- TGI (SF-539 CNS): 2730 nM
- GI50 (COLO 205 colon): 391 nM
- TGI (COLO 205 colon): 2810 nM
- GI50 (MDA-MB-468 breast): 2820 nM
- TGI (MDA-MB-468 breast): 4370 nM
- GI50 (SN12C renal): 679 nM
- TGI (SN12C renal): 4180 nM
- GI50 (CCRF-CEM leukemia): 1370 nM
- TGI (CCRF-CEM leukemia): 2760 nM
- GI50 (EKVX NSCLC): 1490 nM
- TGI (EKVX NSCLC): 4280 nM
- GI50 (LOX IMVI melanoma): 281 nM
- TGI (LOX IMVI melanoma): 961 nM
- GI50 (MCF7 breast): 1590 nM
- TGI (MCF7 breast): > 100000 nM
- GI50 (TK-10 renal): 1210 nM
- TGI (TK-10 renal): 4400 nM
- GI50 (NCI-H522 lung): 1450 nM
- TGI (NCI-H522 lung): 3010 nM
- GI50 (MDA-MB-435 melanoma): 477 nM
- TGI (MDA-MB-435 melanoma): 1700 nM
- GI50 (OVCAR-8 ovarian): 1740 nM
- TGI (OVCAR-8 ovarian): 4300 nM
- GI50 (SNB-19 CNS): 3690 nM
- TGI (SNB-19 CNS): > 100000 nM
- GI50 (RPMI-8226 leukemia): 1910 nM
- TGI (RPMI-8226 leukemia): 3440 nM
- GI50 (MALME-3M melanoma): 34.3 nM
- TGI (MALME-3M melanoma): 308 nM
- GI50 (NCI-H460 NSCLC): 1160 nM
- TGI (NCI-H460 NSCLC): 4380 nM
- GI50 (NCI/ADR-RES ovarian): 2530 nM
- TGI (NCI/ADR-RES ovarian): 6340 nM
- GI50 (SF-295 CNS): 2210 nM
- TGI (SF-295 CNS): > 100000 nM
- GI50 (NCI-H23 lung): 490 nM
- TGI (NCI-H23 lung): 1580 nM
- GI50 (NCI-H322M lung): 2580 nM
- TGI (NCI-H322M lung): 9500 nM
- GI50 (A549 NSCLC): 1180 nM
- TGI (A549 NSCLC): 23200 nM
- GI50 (A498 renal): 2410 nM
- TGI (A498 renal): 9320 nM
- GI50 (DU-145 prostate): 2220 nM
- TGI (DU-145 prostate): 8640 nM
- GI50 (HT29 colon): 520 nM
- TGI (HT29 colon): > 100000 nM
